Source: article PMC11921695 (BMC Cancer, 2025)
Where “and” joins values, the source holds several entries; their conditions need not be identical. Equal values may be shown once.

What was measured:
[1] = system: patients with HIV-associated KS; experiment: Phase I 3 + 3 dose escalation: dose limiting toxicity, MTD/RP2D; format: in vivo, human; conditions: for occurrence of DLT: cycle 1
Protocol: The trial used a standard 3 + 3 rule-based dose escalation algorithm with four pre-defined dose levels. […] A dose of 75 mg once daily (od) provided a dose level below the starting dose should de-escalation be required.
The aim of the phase I component of the trial was to determine the maximum tolerated dose (MTD) of selumetinib in combination with ART, which was defined as the highest dose producing one or fewer DLT in six patients. This dose was defined as the recommended phase II dose (RP2D) for the subsequent phase II component of the trial. Patients recruited to phase I who received the RP2D as their initial dose were included in the phase II population for response analysis. Having completed six cycles of treatment, patients who responded to treatment were permitted to continue selumetinib with ART at the discretion of the treating physician. Patients concurrently received best supportive therapy according to institutional guidelines.
The occurrence of DLTs was used to evaluate the safety of each dose level and thereby determine the MTD which defined the RP2D.
• Haematological. • Absolute neutrophil count (ANC) < 1.0 × 10^9/L. • Febrile neutropenia (ANC < 1.0 × 10^9/L, fever ≥ 38 °C). • Platelets < 50 × 10^9/L. • Bleeding thought to be due to thrombocytopenia. • Non-haematological. • Diarrhoea ≥ grade 3 despite optimal loperamide use. • Rash ≥ grade 3. • Any grade 2 toxicity unacceptable to the patient that required a dose reduction. • Missing > 30% of treatment doses for toxicity reasons. • Any other grade 3 or 4 effects thought to be treatment related. • HIV control. • Clinically necessary change in ART drug levels due to detrimental alteration in HIV viral load and/or CD4 cell count.

[2] = system: HIV-associated Kaposi sarcoma; experiment: Objective response by ACTG criteria; format: in vivo, human; conditions: for objective response (OR) rate: 90% CI
Protocol: For registered patients, pre-treatment evaluation included: physical examination, ophthalmologic exam, electrocardiogram (ECG), echocardiogram or multi-gated acquisition (MUGA) scan, chest x-ray and CT thorax, abdomen, and pelvis. Adverse events according to CTCAE version 4.0 [18] were recorded every three weeks. The burden of cutaneous disease was estimated by summed tumour area sizes (mm^2) from photographic image measurements and evaluated at baseline using ACTG criteria (Supplementary Appendix 3), with subsequent formal response assessments including clinical photographs taken every 6 weeks for 12 months or until disease progression. For patients with visceral or extensive disease, repeat CT scans at these time points were also performed.
OR rate was reported as the proportion of patients who achieved OR out of the total per-protocol population, with 90% confidence intervals (CI). Sensitivity analyses were also performed to compare this OR rate with ones that used the MTD population and the any-dose population as the denominator. The OR rate was also calculated for those who received at least six cycles of selumetinib.
The absence of any detectable residual disease, including tumour-associated oedema, persisting for at least 4 weeks.
A 50% or greater decrease in the number and/or size of previously existing lesions (skin, oral, measurable or evaluable visceral disease) lasting for at least 4 weeks without the appearance of new lesions or the appearance or worsening of tumour-associated oedema or effusions, […] of 25% or more in the product of bi-dimensional diameters of any indicator lesion.
Any response not meeting the criteria for progression or PR.

[3] = system: HIV-associated Kaposi sarcoma; experiment: Progression-free survival (Kaplan-Meier); format: in vivo, human
HIV-1 = experiment: HIV control: HIV-1 viral load; format: in vivo, human; conditions: during the trial, patients receiving selumetinib + ART
Protocol: HIV control was assessed by plotting longitudinal HIV-1 viral load and CD4 cell counts over time for the per-protocol population. Due to missing data at the pre-treatment cycle 1 […] visit, the CD4 cell counts from the screening visit were used as the baseline comparator. Paired t-tests were done to test the difference between CD4 cell counts at screening, cycle 3 day 22 and cycle 6 day 22. Due to multiple testing, a Bonferroni correction was applied to the significance threshold, calculated as 0.05 ÷ 2 = 0.025.
HIV-1 viral load and CD4 counts were measured as per standard of care at hospital sites. To measure the concentration of angiogenesis markers, 8.5 ml blood was collected in BD vacutainer no-additive serum tubes. Samples were kept at room temperature for 30 minutes before centrifugation at 2000 g for 20 minutes at room temperature. Serum samples were then stored at -80 °C prior to analysis. Serum Ang-1, Ang-2 and TIE levels were assessed using commercial ELISAs (Thermo Fisher Scientifc hAng-1 (EHANGPT1), R&D DuoSet Ang-2 (DY623), eBioscience hTIE2 (BMS2042)), according to manufacturer instructions at laboratories at the University of Sheffield.

[4] = Selumetinib and N-desmethyl selumetinib plasma levels (phase I pharmacokinetics); format: in vivo; conditions: for Selumetinib Concentration, 2 Hours Post-Dose / Selumetinib Concentration, 6 Hours Post-Dose / Selumetinib Concentration, Day 1 Pre-Dose: plasma, individual patients; for Selumetinib Concentration, 2 Hours Post-Dose / Selumetinib Concentration, 6 Hours Post-Dose: cycle 1 day 1
Protocol: Pharmacokinetic studies will be performed in phase I only . […]
compartmental analysis will estimate C max, AUC0-24 , clearance and t1/2 from per ipheral blood measurements of both AZD 6244 and its metabolites pr e- dose, and at 2 and 6 hours post dose on day 1 and pre- dos e day 15. Labor atory bioanalysis will be performed by Quotient […]
• Samples to be collected Cycle 1 Day 1 Pre -treatment, 2 hours and 6 hours post dose (aft er f irst set of tablets) pre- dose Cycle 1 Day 15.
• 5mls of venous blood should be collected into a K2- ED TA BD vacutainer • Samples should be inverted several times to ensure adequate mix ing. […]
• 2x 500µ l of plasma should be aliquoted to polypropylene eppendorf tubes.
• Tubes should be individually labeled with the patient’s study number and sample time- point.
• Samples should be stored at - 200C.
• 1 x sample to be transferred on dry ice to Quotient Bioresearch for bioanalysis (all four sample time- points day 1 pre- d ose, and at 2 and 6 hours post d ose and pre- dose day 1 5 can be shipped together – please refer to the Laboratory Manual for c ourier details).
• 1 x sample to be stored at the study centre as back-up.

[5] = system: patients with advanced cancer; parameters: method as in Banerji, et al.; conditions: ref Banerji, et al., cited from earlier work
[6] = system: embryofoetal development and survival; parameters: method as in SCART protocol 7.3.1; conditions: at dose levels that do not induce maternal toxicity in mice; ref SCART protocol 7.3.1; cited from earlier work
[7] = any dose/safety population, 16 patients
[8] = per protocol population, 12 patients

## Cn1cnc2c(F)c(Nc3ccc(Br)cc3Cl)c(C(=O)NOCCO)cc21 [selumetinib, 6-(4-Bromo-2-chloro-phenylamino)-7-fluro-3-methyl-3 H-benzoimidazole-5-carboxylic acid (2-hydroxy-ethoxy)-amide hydrogen sulphate]
[1]; 75 mg bd, single event, possibly related, resolved with no sequelae
  nature of the DLT: asymptomatic concurrent increase in serum amylase and raised eosinophils, both grade 3
[1]; four patients starting 50 mg bd
  occurrence of DLT: None
[1]; selumetinib orally in combination with ART, highest dose producing one or fewer DLT in six patients
  maximum tolerated dose (MTD) / recommended phase II dose (RP2D): 75 mg bd
[1]; six phase I patients starting 75 mg bd
  occurrence of DLT: one and 1 out of 6
[2]; MTD population (sensitivity analysis)
  objective response (OR) rate: 6.7%
[2]; any-dose/safety population (sensitivity analysis)
  objective response (OR) rate: 6.3%
[2]; any-dose/safety population, 16 patients
  clinical benefit rate (CR, PR and SD): 75%
[2]; per-protocol population, 12 patients, 75 mg bd + ART
  objective response (OR) rate: 8.3%
[2]; the only patient with PR (deepened to CR after discontinuing at 3 cycles)
  response duration: 201 days
[3]; MTD population, 15 patients
  3-month PFS (90% CI): 66%(42%,82%)
  6-month PFS (90% CI): 44% (22%, 64%)
  Median PFS in months (90% CI): 5.53 (2.53, 12.80) months
[3]; [7]
  3-month PFS (90% CI): 62%(39%,78%)
  6-month PFS (90% CI): 41% (21%, 61%)
  Median PFS in months (90% CI): 4.14 (2.53, 12.80) months
[3]; [8]
  3-month PFS (90% CI): 57%(31%,76%)
  Median PFS in months (90% CI): 3.42 (1.74, -^$) months
HIV-1
  HIV-1 viral load: remained undetectable
[4]; phase I, comparison with refs 19-22
  plasma levels compared with other selumetinib studies: consistent with published reports from other selumetinib studies
[4]; starting dose 50 mg bd
  Selumetinib Concentration, 2 Hours Post-Dose: 201 ng/mL and 304 ng/mL and 238 ng/mL and 274 ng/mL
  Selumetinib Concentration, 6 Hours Post-Dose: 26.5 ng/mL and 48.5 ng/mL and 47.9 ng/mL
  Selumetinib Concentration, Day 1 Pre-Dose: BLQ
[4]; starting dose 75 mg bd
  Selumetinib Concentration, 2 Hours Post-Dose: 1280 ng/mL and 1250 ng/mL and 361 ng/mL and 247 ng/mL and 504 ng/mL and 1040 ng/mL
  Selumetinib Concentration, 6 Hours Post-Dose: 249 ng/mL and 180 ng/mL and 284 ng/mL and 452 ng/mL and 66.1 ng/mL
  Selumetinib Concentration, Day 1 Pre-Dose: BLQ
[5]; selumetinib monotherapy
  dose identified as both safe and tolerable: 75 mg bd
[5]; week 8, range -25% to +10%
  mean decrease in left ventricular ejection fraction (LVEF): -7.2%
[6]
  reproductive toxicology finding: adverse effects on embryofoetal
